Experimental data reported in patent US20070212339A1, “Use Of At Least One Effector Of Glutathione Metabolism Together With Alpha-Lipoic Acid For The Treatment Of Chronically Obstructive Lung Diseases” (ESPARMA GMBH, priority 2003, published 2007).

How the values were obtained:
[1] = tested on: primary alveolar macrophages of COPD patients; assay: Phagocytosis rate of primary alveolar macrophages of COPD patients (cytofluorimetric test with opsonized fluorochrome-marked bacteria); assay type: cell-based, human; settings: for Phagoburst (mfi) [%]: RPMI1640; for phagocytosis rate: monosubstances, by comparison with the untreated control
Procedure: In a similar procedure to the one described in Example 3, alveolar macrophages were isolated and cultivated ex vivo. The phagocytosis efficiency was determined by a cytofluorimetric test at the single-cell level. The macrophages were co-cultivated with opsonized and fluorochrome-marked bacteria. The amount of bacteria absorbed in a defined period of time was assessed quantitatively via the fluorescence intensity in the macrophages and counted as the measurement for their capacity for phagocytosis. The influence of the combinations used according to the invention on the capacity of the […] macrophages for phagocytosis after a treatment period of up to 96 hours is shown in Table 7.

[2] = tested on: alveolar macrophage cell line CRL 21-92 (NR8383); assay: Intracellular thiol content (CMFDA, flow cytofluorimetry) of artificially thiol-depleted alveolar macrophage cell line; assay type: cell-based; settings: αLA 10.0 μg/ml alone, TDM
Procedure: (§1) The established normal alveolar macrophage cell line CRL 21-92 (NR8383 [AgC11x3A; NR8383.1]) was used. The cells were taken up in special cell culture media and incubated in a gassing incubator at 37° C., a relative air humidity of 98% and a relative air-CO2 content of 5%. In order to check the influence of the combinations used according to the invention on the thiol status of thiol-deficient alveolar macrophages, these were artificially thiol-depleted. This came about by cultivation in thiol-deficient media (TDM) according to tested methods [Free Radic Biol Med 2000; 29:1160-1165]. Comparative cultures using complete media (RPMT 1640) were used for defining the best possible normal value under culture conditions. The intercellular thiol content at the individual cell level was determined using 5-chloromethylfluorescein diacetate (CMFDA) in flow cytofluorimetry [Cytometry 1994; 15:349-358, Cytometry 1997; 29:76-82]. CMFDA which is primarily non-fluorogenic is here passively absorbed by the cell. Via the chloromethyl residue there is binding to cytoplasmatic thiol groups. After the acetate residues have been split off by unspecific cellular esterases, this complex which is now cell membrane-impermeable becomes fluorogenic at an excitation wavelength of λex=490 nm with an emission wavelength of λem=520 nm. The mean fluorescence intensity of the sample (10,000 cells) is directly proportional to the concentration of the intracellular thiol groups. The expression of membrane-bound thiol groups was also determined by means of flow cytofluorimetry. Chloromethyl tetramethyl rhodamine (CMTMR) was used as the thiol conjugate under conditions of a blocked membrane potential and an inhibited diffusion capacity of the cells, [Exp Hematol 1997; 25(7): 601-607]. The fluorescence intensity of the bound fluorochrome molecules on the cell membrane is here again proportional to the quantity of thiol groups on the cell surface. Immortalised alveolar macrophages were artificially thiol-depleted in the above-described test assembly. The influence of the substances used according to the invention was checked over a period of 96 hours by measuring the intracellular thiol content and the membrane expression of thiols. Immortalised alveolar macrophages were artificially thiol-depleted in the test assembly described in Example 1. The influence of the substances used according to the invention was checked over a period of 96 hours by measuring the intracellular thiol content and the membrane expression of thiols.

[3] = tested on: alveolar macrophage cell line CRL 21-92 (NR8383); assay: Membrane-bound thiol expression (CMTMR, flow cytofluorimetry) of artificially thiol-depleted alveolar macrophage cell line; assay type: cell-based; settings: αLA 10.0 μg/ml alone, TDM
Procedure: as §1, with “conditions.” for “conditions. The intercellular thiol content at the individual cell level was determined using 5-chloromethylfluorescein diacetate (CMFDA) in flow cytofluorimetry [Cytometry 1994; 15:349-358, Cytometry 1997; 29:76-82]. CMFDA which is primarily non-fluorogenic is here passively absorbed by the cell. Via the chloromethyl residue there is binding to cytoplasmatic thiol groups. After the acetate residues have been split off by unspecific cellular esterases, this complex which is now cell membrane-impermeable becomes fluorogenic at an excitation wavelength of λex=490 nm with an emission wavelength of λem=520 nm. The mean fluorescence intensity of the sample (10,000 cells) is directly proportional to the concentration of the intracellular thiol groups.”

[4] = tested on: primary alveolar macrophages of COPD patients; assay: Cellular thiol status (CMFDA) of primary alveolar macrophages of COPD patients; assay type: cell-based, human; settings: for Thiols, intracellular (CMFDA)[%]: RPMI1640
Procedure: The intercellular thiol content at the individual cell level was determined using 5-chloromethylfluorescein diacetate (CMFDA) in flow cytofluorimetry [Cytometry 1994; 15:349-358, Cytometry 1997; 29:76-82]. CMFDA which is primarily non-fluorogenic is here passively absorbed by the cell. Via the chloromethyl residue there is binding to cytoplasmatic thiol groups. After the acetate residues have been split off by unspecific cellular esterases, this complex which is now cell membrane-impermeable becomes fluorogenic at an excitation wavelength of λex=490 nm with an emission wavelength of λem=520 nm. The mean fluorescence intensity of the sample (10,000 cells) is directly proportional to the concentration of the intracellular thiol groups. Alveolar macrophages were isolated from the bronchoalveolar lavage fluid of COPD patients, taken up in cell culture medium and incubated in a gassing incubator at 37° C., a relative air humidity of 98% and a relative air-CO2 content of 7.5%. In order to check the influence of the combinations used according to the invention on the thiol status of the […] macrophages, in each case one fraction was treated with α-lipoic acid, the effector of glutathione metabolism ambroxol or with the combination of α-lipoic acid/ambroxol, whilst another fraction was used in each case as an untreated control. Untreated alveolar macrophages from healthy, non-COPD patients served as the normal comparison. The cellular thiol status was determined by means of the measuring method described under 1. The effect of the combination of α-lipoic acid and ambroxol in time kinetics over 96 hours in relation to healthy cells is shown in Table 5. In a test assembly identical to that of Example 3, alveolar macrophages from COPD patients were in each case treated with α-lipoic acid, the effector silibinin or with the combination of α-lipoic acid/silibinin, whilst another fraction was again used in each case as an untreated control. Untreated alveolar macrophages from healthy, non-COPD patients served here, too, as the normal comparison. The cellular thiol status was determined by means of the measuring method described under 1. The effect of the combination of α-lipoic acid and silibinin in time kinetics over 96 hours in relation to healthy cells is shown in Table 6.

O=C(O)CCCCC1CCSS1 (stereo not drawn) [αLA, α-lipoic acid]
Phagoburst (mfi) [%] ([1]; 24 h, αLA 10.0 μg/ml alone): 59.0 ± 11.7%
Phagoburst (mfi) [%] ([1]; 48 h, αLA 10.0 μg/ml alone): 60.2 ± 12.4%
Phagoburst (mfi) [%] ([1]; 72 h, αLA 10.0 μg/ml alone): 50.7 ± 9.0%
Phagoburst (mfi) [%] ([1]; 96 h, αLA 10.0 μg/ml alone): 64.9 ± 14.3%
phagocytosis rate [1]: had not altered
Thiols, intracellular (CMFDA)[%] ([2]; Table 1, 24 h): 70.2 ± 8.4%
Thiols, intracellular (CMFDA)[%] ([2]; Table 1, 48 h): 58.9 ± 10.4%
Thiols, intracellular (CMFDA)[%] ([2]; Table 1, 72 h): 78.1 ± 30.0%
Thiols, intracellular (CMFDA)[%] ([2]; Table 1, 96 h): 72.5 ± 19.1%
Thiols, intracellular (CMFDA)[%] ([2]; Table 3, 24 h): 69.2 ± 28.2%
Thiols, intracellular (CMFDA)[%] ([2]; Table 3, 48 h): 91.1 ± 16.6%
Thiols, intracellular (CMFDA)[%] ([2]; Table 3, 72 h): 88.6 ± 26.2%
Thiols, intracellular (CMFDA)[%] ([2]; Table 3, 96 h): 114.8 ± 33.2%
Thiols, in membrane (CMTMR)[%] ([3]; Table 2, 24 h): 91.1 ± 66.3%
Thiols, in membrane (CMTMR)[%] ([3]; Table 2, 48 h): 165.5 ± 36.3%
Thiols, in membrane (CMTMR)[%] ([3]; Table 2, 72 h): 82.3 ± 42.1%
Thiols, in membrane (CMTMR)[%] ([3]; Table 2, 96 h): 118.9 ± 76.6%
Thiols, in membrane (CMTMR)[%] ([3]; Table 4, 24 h): 108.8 ± 38.2%
Thiols, in membrane (CMTMR)[%] ([3]; Table 4, 48 h): 126.2 ± 68.6%
Thiols, in membrane (CMTMR)[%] ([3]; Table 4, 72 h): 90.7 ± 28.1%
Thiols, in membrane (CMTMR)[%] ([3]; Table 4, 96 h): 107.3 ± 57.4%
cellular thiol expression ([4]; Example 3, monosubstances): no effect
cellular thiol expression ([4]; Example 4, monosubstances): no modulation
Thiols, intracellular (CMFDA)[%] ([4]; Table 5, 24 h, αLA 10.0 μg/ml alone): 60.3 ± 21.0%
Thiols, intracellular (CMFDA)[%] ([4]; Table 5, 48 h, αLA 10.0 μg/ml alone): 58.0 ± 17.0%
Thiols, intracellular (CMFDA)[%] ([4]; Table 5, 72 h, αLA 10.0 μg/ml alone): 46.2 ± 19.8%
Thiols, intracellular (CMFDA)[%] ([4]; Table 5, 96 h, αLA 10.0 μg/ml alone): 62.4 ± 6.3%
Thiols, intracellular (CMFDA)[%] ([4]; Table 6, 24 h, αLA 10.0 μg/ml alone): 60.3 ± 21.0%
Thiols, intracellular (CMFDA)[%] ([4]; Table 6, 48 h, αLA 10.0 μg/ml alone): 58.0 ± 68.6%
Thiols, intracellular (CMFDA)[%] ([4]; Table 6, 72 h, αLA 10.0 μg/ml alone): 46.2 ± 19.8%
Thiols, intracellular (CMFDA)[%] ([4]; Table 6, 96 h, αLA 10.0 μg/ml alone): 62.4 ± 6.3%

COc1cc(C2Oc3cc([C@H]4Oc5cc(O)cc(O)c5C(=O)[C@@H]4O)ccc3OC2CO)ccc1O (stereo partly shown) [Silibinin, silibinin]
Phagoburst (mfi) [%] ([1]; 24 h, Silibinin 70.0 μg/ml alone): 55.1 ± 12.2 %
Phagoburst (mfi) [%] ([1]; 48 h, Silibinin 70.0 μg/ml alone): 57.6 ± 8.5%
Phagoburst (mfi) [%] ([1]; 72 h, Silibinin 70.0 μg/ml alone): 54.2 ± 13.8%
Phagoburst (mfi) [%] ([1]; 96 h, Silibinin 70.0 μg/ml alone): 59.9 ± 21.2%
Thiols, intracellular (CMFDA)[%] ([4]; 24 h, Silibinin 70 μg/ml alone): 56.1 ± 12.4%
Thiols, intracellular (CMFDA)[%] ([4]; 48 h, Silibinin 70 μg/ml alone): 59.0 ± 56.8%
Thiols, intracellular (CMFDA)[%] ([4]; 72 h, Silibinin 70 μg/ml alone): 44.7 ± 14.0%
Thiols, intracellular (CMFDA)[%] ([4]; 96 h, Silibinin 70 μg/ml alone): 49.4 ± 14.5%

Nc1c(Br)cc(Br)cc1CN[C@H]1CC[C@H](O)CC1 [Ambroxol, ambroxol]
Phagoburst (mfi) [%] ([1]; 24 h, Ambroxol 10 μM alone): 53.3 ± 10.9%
Phagoburst (mfi) [%] ([1]; 48 h, Ambroxol 10 μM alone): 59.2 ± 12.4%
Phagoburst (mfi) [%] ([1]; 72 h, Ambroxol 10 μM alone): 55.2 ± 19.2%
Phagoburst (mfi) [%] ([1]; 96 h, Ambroxol 10 μM alone): 61.9 ± 22.1%
phagocytosis rate [1]: had not altered
Thiols, intracellular (CMFDA)[%] ([4]; 24 h, Ambroxol [10.0 μ/ml] alone): 67.4 ± 16.4%
Thiols, intracellular (CMFDA)[%] ([4]; 48 h, Ambroxol [10.0 μ/ml] alone): 61.8 ± 11.5%
Thiols, intracellular (CMFDA)[%] ([4]; 72 h, Ambroxol [10.0 μ/ml] alone): 61.6 ± 20.8%
Thiols, intracellular (CMFDA)[%] ([4]; 96 h, Ambroxol [10.0 μ/ml] alone): 67.1 ± 8.4%
cellular thiol expression ([4]; Example 3, monosubstances): only a marginal rise
